Results from US10351587B2, “Method of making and using 7α, 11β-dimethyl-17β-hydroxyestr-4-en-3-one 17-undecanoate” (The United States of America, as represented by the …, priority 2000, dated 2019).
Values joined by “and” are separate entries in the source; they are usually repeats but may differ in a detail not shown here. Equal values may be shown once. “Also recorded” adds a separate entry of the source.

Key:
Type in all cases: in vivo
[1] = test system: castrate Sprague-Dawley rats; test: Hershberger test, oral administration for seven days (ventral prostate weight)
Experimental: Immature (about 21-day-old) Sprague-Dawley rats were orchidectomized under anesthesia, and randomly assignee to groups of ten animals for each dose level of the active undergoing testing. Each active was dissolved in 10% ethanol/sesame oil and administered by gavage (oral) each day for seven days beginning on the date of the orchidectomy. The animals were sacrificed 24 hours after the last dose, and the ventral prostate and seminal vesicles were excised, cleaned of fat and connective tissue, blotted on moist filter paper and weighed to the nearest 0.1 mg. See, e.g., Hershberger, L. et al, Myotrophic Activity of 19-nortestosterone And Other Steroids Determined By Modified Levator And Muscle Method, Proc. Soc. Exptl. Biol. Med. 83 175-180 (1953). Regression analysis was performed by conventional methods using a PROPHET data management system. See, e.g., Bliss, C., The Statistics of Bioassay (Academic Press, New York, 1952); Hollister, C., Nucleic Acids Res. 16 1873-75 (1988). […]
Immature (about 21-day-old) Sprague-Dawley rats were orchidectomized under anesthesia, and randomly assignee to groups of ten animals for each dose level of the active undergoing testing. […] See, e.g., Hershberger, L. et al, Myotrophic Activity of 19-nortestosterone And Other Steroids Determined By Modified Levator And Muscle Method, Proc. Soc. […]

[2] = test system: castrate Sprague-Dawley rats; test: Hershberger test, subcutaneous administration for seven days (ventral prostate weight); settings: for Androgenic Potency of Corresponding Alcohol: ventral prostate weight assay following subcutaneous administration, alcohol of G = 1.0 (assigned), value is for the free alcohol of the listed ester; for Androgenic activity Potency Ratio, subcutaneous: subcutaneous daily for 7 days in 10% EtOH/sesame oil, testosterone subcutaneous standard = 1.0 (assigned), ventral prostate weight
Experimental: (§1) Immature (about 21-day-old) Sprague-Dawley rats were orchidectomized under anesthesia, and randomly assignee to groups of ten animals for each dose level of the active undergoing testing. Each active was dissolved in 10% ethanol/sesame oil and administered by gavage (oral) or subcutaneous injection each day for seven days beginning on the date of the orchidectomy. The animals were sacrificed 24 hours after the last dose, and the ventral prostate and seminal vesicles were excised, cleaned of fat and connective tissue, blotted on moist filter paper and weighed to the nearest 0.1 mg. Regression analysis was performed by conventional methods using a PROPHET data management system. Ventral prostate weight was used as the endpoint because it is the sensitive organ to androgenic stimulation.
Immature (about 21-day-old) Sprague-Dawley rats were orchidectomized under anesthesia, and randomly assignee to groups of ten animals for each dose level of the active undergoing testing. Each active was dissolved in 10% ethanol/sesame oil and administered by subcutaneous injection each day for seven days beginning on the date of the orchidectomy. The animals were sacrificed 24 hours after the last dose, and the ventral prostate and seminal vesicles were excised, cleaned of fat and connective tissue, blotted on moist filter paper and weighed to the nearest 0.1 mg. See, e.g., Hershberger, L. et al, Myotrophic Activity of 19-nortestosterone And Other Steroids Determined By Modified Levator And Muscle Method, Proc. Soc. Exptl. Biol. Med. 83 175-180 (1953). Regression analysis was performed by conventional methods using a PROPHET data management system. See, e.g., Bliss, C., The Statistics of Bioassay (Academic Press, New York, 1952); Hollister, C., Nucleic Acids Res. 16 1873-75 (1988). Ventral prostate weight was used as the endpoint because it is the sensitive organ to androgenic stimulation.

[3] = test system: castrate Sprague-Dawley rats; test: Duration of activity after a single subcutaneous injection (ventral prostate weight over weeks, AUC); settings: for AUC of ventral prostate weight (FIG. 15) / AUC of ventral prostate weight (FIG. 5) / Long-term androgenic activity (ventral prostate weight over time), in words: single subcutaneous injection; for AUC of ventral prostate weight (FIG. 5): n=5
Experimental: as §1, with “was” for “was dissolved in 10% ethanol/sesame oil and”, “by” for “by gavage (oral) or”
Except for testosterone enanthate, each active was formulated in two different carriers: (1) an aqueous suspension and (2) in sesame oil. Testosterone enanthate was formulated using the sesame oil carrier only, because it exists as a liquid at room temperature and could not therefore be formulated as an aqueous suspension.
The carrier used to provide the aqueous suspension was formulated as follows: 1 g benzyl alcohol, 0.5 g sodium carboxylethyl cellulose 50, 0.376 g disodium hydrogen phosphate dihydrate, 1.495 g sodium dihydrogen phosphate dihydrate, with water for injection (WFI) being added to bring volume of the carrier up to 100 ml.
Each formulation was prepared at a concentration of 0.6 mg/0.2 ml.
Immature (about 21-day-old) Sprague-Dawley rats were orchidectomized under anesthesia, and randomly assignee to groups of 40 or more. Animals received a single subcutaneous injection of 0.6 mg of each ester in 0.2 ml of an aqueous suspending carrier and/or oily carrier (10% ethanol/90% sesame oil or ethyl oleate) on the date of the orchidectomy. In cases where the ester was not solid at room temperature, 10% ethanol/sesame oil or ethyl oleate was used as the carrier. In this example, the carrier used to provide the aqueous suspension was formulated as follows: 1 g benzyl alcohol, 0.5 g sodium carboxylethyl cellulose 50, 0.376 g disodium hydrogen phosphate dihydrate, 1.495 g sodium dihydrogen phosphate dihydrate, with water for injection (WFI) being added to bring volume of the carrier up to 100 ml.
Five animals from each group were sacrificed at weekly or biweekly intervals, and the ventral prostate and seminal vesicles were excised, cleaned of fat and connective tissue, blotted on moist filter paper and weighed to the nearest 0.1 mg.
Ventral prostate weight was used as the endpoint because it is the sensitive organ to androgenic stimulation. Regression analysis was performed by conventional methods using the PROPHET data management system previously identified.
Immature (about 21-day-old) Sprague-Dawley rats were orchidectomized under anesthesia, and randomly assignee to groups of 40 or more. Animals received a single subcutaneous injection of 0.6 mg of the undecanoate in 0.2 ml of an aqueous suspending carrier and/or oily carrier (10% ethanol/90% sesame oil containing 5 mg/ml chlorobutanol as a preservative, or ethyloleate) on the date of the orchidectomy. The enanthate ester was formulated using the 10% ethanol/sesame oil or ethyloleate carrier as a first standard, with the 10% ethanol/sesame oil carrier used as a second standard.
In this example, the carrier used to provide the aqueous suspension was formulated as follows: 1 g benzyl alcohol, 0.5 g sodium carboxylethyl cellulose 50, 0.376 g disodium hydrogen phosphate dihydrate, 1.495 g sodium dihydrogen phosphate dihydrate, with water for injection (WFI) being added to bring volume of the carrier up to 100 ml.

CCCCCCCCCCC(=O)O[C@H]1CC[C@H]2[C@H]3[C@H]([C@@H](C)C[C@]12C)[C@H]1CCC(=O)C=C1C[C@H]3C [7α,11β-dimethyl-17β-hydroxyestr-4-en-3-one 17-undecanoate]
Androgenic activity Potency Ratio, oral ([1]; oral gavage daily for 7 days in 10% EtOH/sesame oil, methyltestosterone oral standard = 1.0 (assigned), ventral prostate weight): about twice that of methyltestosterone

CCCC[C@H]1CC[C@H](C(=O)O[C@H]2CC[C@H]3[C@H]4[C@H](CC[C@]23C)[C@H]2CCC(=O)C=C2C[C@H]4C)CC1 [A, 7α-Methyl-19-nortestosterone-17β-bucyclate]
Androgenic Potency of Corresponding Alcohol [2]: 8.1^3

CCCC[C@H]1CC[C@H](C(=O)O[C@H]2CC[C@H]3[C@H]4[C@H](CC[C@]23C)[C@H]2CCC(=O)C[C@@H]2C[C@H]4C)CC1 [B, 7α-Methyl-5α-dihydro-19-nortestosterone-17β-bucyclate]
Androgenic Potency of Corresponding Alcohol [2]: 1.2

CCCC[C@H]1CC[C@H](C(=O)O[C@H]2CC=C3[C@@H]4[C@H](C)CC5=CC(=O)CC[C@]5(C)[C@H]4CC[C@@]32C)CC1 [C, 7α-Methyl-14-dehydro-testosterone-17β-bucyclate]
Androgenic Potency of Corresponding Alcohol [2]: 61.1

C[C@]12CC[C@H]3[C@@H](CCC4=CC(=O)CC[C@@]43C)[C@@H]1CC[C@@H]2O [CDB-111C, testosterone]
Androgenic activity Potency Ratio, subcutaneous [2]: 1.00

CCCCCCC(=O)O[C@H]1CC[C@H]2[C@@H]3CCC4=CC(=O)CC[C@]4(C)[C@H]3CC[C@]12C [CDB-112E, testosterone enanthate]
AUC of ventral prostate weight (FIG. 15) ([3]; 0.6 mg, 10% EtOH/Sesame Oil, 10 week period, listed as CDB-112F): 559 mg-weeks and 559.28 mg-weeks | AUC of ventral prostate weight (FIG. 5) ([3]; 0.6 mg, S.O. (sesame oil)): 497

C[C@@H]1CC2=CC(=O)CC[C@@H]2[C@@H]2[C@@H]1[C@@H]1CC[C@H](O)[C@@]1(C)C[C@@H]2C [CDB-1321D, 7α,11β-Dimethyl-17β-hydroxy-4-estren-3-one]
AUC of ventral prostate weight (FIG. 5) ([3]; 0.6 mg, ASV (aqueous suspending vehicle)): 460 | AUC of ventral prostate weight (FIG. 5) ([3]; 0.6 mg, S.O. (sesame oil)): 166

CCCCC1CCC(C(=O)O[C@H]2CC[C@H]3[C@@H]4CCC5=CC(=O)CC[C@]5(C)[C@H]4CC[C@]23C)CC1 (stereo partly shown) [CDB-1781a, Testosterone bucyclate]
Androgenic Potency of Corresponding Alcohol [2]: 1.0 (assigned) | Long-term androgenic activity (ventral prostate weight over time), in words [3]: significantly less | AUC of ventral prostate weight (FIG. 5) ([3]; 0.6 mg, S.O. (sesame oil)): 186 | AUC of ventral prostate weight (FIG. 5) ([3]; 1.0 mg, ASV (aqueous suspending vehicle)): 683

CCCC[C@H]1CC[C@H](C(=O)O[C@H]2CC=C3[C@H]4[C@H](CC[C@@]32C)[C@H]2CCC(=O)C=C2C[C@H]4C)CC1 [CDB-4327A, 7α-Methyl-14-dehydro-19-nortestosterone-17β-bucyclate]
Long-term androgenic activity (ventral prostate weight over time), in words [3]: surprising stimulation of ventral prostate size over the entire 20-week observation period

CCCCC1CCC(C(=O)O[C@H]2CC[C@H]3[C@H]4[C@H]([C@H](C)C[C@]23C)[C@H]2CCC(=O)C=C2C[C@H]4C)CC1 (stereo partly shown) [CDB-4386]
Long-term androgenic activity (ventral prostate weight over time), in words [3]: inactive; also recorded: relatively low activity

CCCCCCCCCCC(=O)O[C@H]1CC[C@H]2[C@H]3[C@H]([C@@H](C)C[C@]12C)[C@H]1CCC(=O)C=C1C[C@H]3C [CDB-4521A, 7α,11β-dimethyl-17β-hydroxyestr-4-en-3-one 17-undecanoate]
Androgenic activity Potency Ratio, oral, aqueous suspending vehicle ([1]; oral gavage daily for 7 days in aqueous suspending vehicle (ASV), methyltestosterone in same vehicle = 1.0 (assigned)): 0.95 | Androgenic activity Potency Ratio, subcutaneous [2]: 0.52 | Long-term androgenic activity (ventral prostate weight over time), in words [3]: most dramatic increase and maintenance of ventral prostate weight | AUC of ventral prostate weight relative to testosterone enanthate in sesame oil ([3]; single subcutaneous injection 0.6 mg, active in aqueous vehicle, 10 week period): about 3 times | AUC of ventral prostate weight (FIG. 15) ([3]; 0.6 mg, 10% EtOH/Sesame Oil, 10 week period): 620 mg-weeks | AUC of ventral prostate weight (FIG. 15) ([3]; 0.6 mg, Aqueous Suspending Vehicle, 10 week period): 1817 mg-weeks

CCCCC1CCC(C(=O)OC2CCCC3C4C(C)CC5=CC(=O)CCC5(C)C4CCC23C)CC1 [D, 7α-Methyl-D-homo-testosterone-17β-bucyclate]
Androgenic Potency of Corresponding Alcohol [2]: 36.4-61.7^3
